Non-standard residues stand in square brackets, D forms with d. No end group written: not given here. pGlu = O=C1CC[C@@H](C(=O)O)N1
System: mouse epidermal mitotic rate
Experiment: change in mouse epidermal mitotic rate after intraperitoneal injection (Colcemid method)
Format: in vivo
Conditions: 10^-13 moles of peptide injected per mouse, first three hours after injection, versus control animals from the same cage
Method: In the following Table 1 the in vivo result (change in mouse epidermal mitotic rate) has been described as an example for one of the dipeptides. The epidermal mitotic rate was measured for the first three hours after intraperitoneal injection of the dipeptide. Mitotic rate was determined by means of "Colcemid". A reduced rate was determined as a percentage in comparison with control animals from the same cage.

[pGlu]-Gly
Decrease in mitotic rate: 40%

Reference: patent publication US4868156A, “Pharmaceutical preparation containing a dipeptide with cell growth regulating effect” (Bio-Tech A/S, priority 1986, dated 1989)
